Measured values as given in ChEMBL document CHEMBL4229545, “Oximes short-acting CB1 receptor agonists” (Bioorg Med Chem, 2018).

Key:
[1] = molecular target: Cannabinoid receptor 1 (Rattus norvegicus) (UniProt P20272); assay: Agonist activity at recombinant rat Cb1 receptor expressed in HEK293 cells assessed as inhibition of forskolin-stimulated cAMP levels relative to control; type: functional, cell-based
Cannabinoid receptor 2 [2] = molecular target: T1, Cannabinoid receptor 2 (Homo sapiens, UniProt P34972); assay: Agonist activity at recombinant human Cb2 receptor expressed in HEK293 cells assessed as inhibition of forskolin-stimulated cAMP levels relative to CP-55940; type: functional, cell-based
Cannabinoid receptor 2 [3] = molecular target: T1, Cannabinoid receptor 2; assay: Displacement of [3H]CP-55,940 from recombinant human Cb2 receptor expressed in HEK293 cells; type: cell-based
Cannabinoid receptor 1 [4] = molecular target: T2, Cannabinoid receptor 1 (Rattus norvegicus, UniProt P20272); assay: Displacement of [3H]CP-55,940 from rat brain Cb1 receptor
Cannabinoid receptor 2 [5] = molecular target: Cannabinoid receptor 2 (Mus musculus, UniProt P47936); assay: Displacement of [3H]CP-55,940 from recombinant mouse Cb2 receptor expressed in HEK293 cells; type: cell-based
Cannabinoid receptor 2 [6] = molecular target: T1, Cannabinoid receptor 2; assay: Agonist activity at recombinant human Cb2 receptor expressed in HEK293 cells assessed as inhibition of forskolin-stimulated cAMP levels; type: functional, cell-based
Cannabinoid receptor 1 [7] = molecular target: T2, Cannabinoid receptor 1; assay: Agonist activity at recombinant rat Cb1 receptor expressed in HEK293 cells assessed as inhibition of forskolin-stimulated cAMP levels; type: functional, cell-based

Cannabinoid receptor 1 (Rattus norvegicus), sequence (P20272 whole entry): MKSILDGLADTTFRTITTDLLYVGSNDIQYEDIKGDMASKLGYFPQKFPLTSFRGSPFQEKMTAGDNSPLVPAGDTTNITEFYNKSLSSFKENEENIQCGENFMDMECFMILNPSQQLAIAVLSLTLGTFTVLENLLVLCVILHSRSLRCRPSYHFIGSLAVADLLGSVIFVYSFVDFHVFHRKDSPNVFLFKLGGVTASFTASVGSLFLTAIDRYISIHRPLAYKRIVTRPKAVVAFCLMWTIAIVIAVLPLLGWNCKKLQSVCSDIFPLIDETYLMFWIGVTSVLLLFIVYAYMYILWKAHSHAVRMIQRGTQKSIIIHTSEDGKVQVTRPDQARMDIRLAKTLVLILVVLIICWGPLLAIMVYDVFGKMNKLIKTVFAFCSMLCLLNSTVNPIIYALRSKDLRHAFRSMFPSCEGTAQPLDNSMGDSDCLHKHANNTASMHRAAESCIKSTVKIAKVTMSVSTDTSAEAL
T2 sequence (P20272 whole entry): as above
T1 sequence (P34972 whole entry): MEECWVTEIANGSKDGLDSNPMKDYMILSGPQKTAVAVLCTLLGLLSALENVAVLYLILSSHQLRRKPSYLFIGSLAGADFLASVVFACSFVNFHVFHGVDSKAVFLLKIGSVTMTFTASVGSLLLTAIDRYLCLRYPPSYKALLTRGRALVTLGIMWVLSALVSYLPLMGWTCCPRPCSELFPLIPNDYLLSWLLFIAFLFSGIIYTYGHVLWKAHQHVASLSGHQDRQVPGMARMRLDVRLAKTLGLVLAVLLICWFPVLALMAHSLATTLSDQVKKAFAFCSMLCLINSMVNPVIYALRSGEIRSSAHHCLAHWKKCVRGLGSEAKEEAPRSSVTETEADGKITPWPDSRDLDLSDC
Cannabinoid receptor 2 (Mus musculus, UniProt P47936), sequence (P47936 whole entry): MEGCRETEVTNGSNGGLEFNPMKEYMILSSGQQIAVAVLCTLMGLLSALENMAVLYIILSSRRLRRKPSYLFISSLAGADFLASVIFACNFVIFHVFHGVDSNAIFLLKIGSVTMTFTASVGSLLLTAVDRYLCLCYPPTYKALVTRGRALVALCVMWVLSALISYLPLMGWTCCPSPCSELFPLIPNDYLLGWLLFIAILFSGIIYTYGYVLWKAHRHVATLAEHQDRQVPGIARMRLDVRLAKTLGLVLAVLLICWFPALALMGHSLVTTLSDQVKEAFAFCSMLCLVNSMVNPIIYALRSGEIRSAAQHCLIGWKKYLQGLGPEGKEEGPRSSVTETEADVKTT

SMILES	Emax [1] [%]	Emax (Cannabinoid receptor 2 [2]) [%]	Ki (Cannabinoid receptor 2 [3]) [nM]	Ki (Cannabinoid receptor 1 [4]) [nM]	Ki (Cannabinoid receptor 2 [5]) [nM]	EC50 (Cannabinoid receptor 2 [6]; read-out: EC50) [nM]	EC50 (Cannabinoid receptor 1 [7]; hek293)	EC50 (Cannabinoid receptor 1 [7]; read-out: EC50) [nM]	EC50 (Cannabinoid receptor 2 [6]; hek293)
CCCCCCC(C)(C)c1ccc([C@@H]2C[C@H](O)CC[C@H]2CCCO)c(O)c1	70 to 85	70 to 85							
CC1=CC[C@H]2[C@H](C1)c1c(O)cc(/C(C)=N/OCCN3CCCC3)cc1OC2(C)C			8.4	6.6	6.7				
CC1=CC[C@H]2[C@H](C1)c1c(O)cc(/C(C)=N\OCCCc3ccccc3)cc1OC2(C)C		98	2.9	5	2.8	1.7	Not Active		
CC1=CC[C@H]2[C@H](C1)c1c(O)cc(/C(C)=N/OCCN3CCCCC3)cc1OC2(C)C	31	147	2.5	5.6	4.1	65.7		12.7	
CCCC(C)O/N=C(\C)c1cc(O)c2c(c1)OC(C)(C)[C@H]1CC=C(C)C[C@H]21 (mixture of isomers)	48	411	24	2	43.6	41.3		22.4	
CCCCCc1cc(O)c2c(c1)OC(C)(C)[C@H]1CC=C(C)C[C@H]21					40.4				
CCCC(C)O/N=C(/C)c1cc(O)c2c(c1)OC(C)(C)[C@H]1CC=C(C)C[C@H]21 (mixture of isomers)		260	6.1	0.5	1.9	11.5	Not Active		
CC1=CC[C@H]2[C@H](C1)c1c(O)cc(/C(C)=N/OCCCCF)cc1OC2(C)C	39		9.7	4.1	2.5			0.7	Not Active
CC1=CC[C@H]2[C@H](C1)c1c(O)cc(/C(C)=N/OCCCn3ccnc3)cc1OC2(C)C			3.7	1.2	1.5				
